What was measured:
PH-HFpEF patients = test: Open-label extension (rollover) study: six-minute walk distance and Likert quality of life; format: in vivo, human
Method: This is an open-label rollover study to allow patients to continue levosimendan treatment if the patient has tolerated treatment in the HELP clinical study seen in Example 1.
Study drug concentrated solution (2.5 mg/mL), levosimendan, is mixed with diluent and administered as weekly infusions at 0.075 μg/kg/min for 24 hrs. Patients may have a dose escalation at Weeks 3 at a rate of 0.10 μg/kg/min for 24 hours, unless there has been a meaningful change in blood pressure or heart rate or other prohibitive rationale.
Visits at Weeks 3, 6, 12, 24, 48 and Follow-Up Visit (at termination) are performed within 72 hours of the scheduled weekly visit. These visits are performed at the investigator's office. The Follow-Up Visit (at termination) is calculated as the earlier of two years from the subject's date of entry into this extension study or as soon as possible after study discontinuation, but within 1 week. During this visit, the following procedures are performed: Vital signs; body weight (Week 3 only); 6MWT; Quality of Life assessment; NYHA Functional Class; Physician Assessment; assess adverse events, and concomitant medications and/or procedures.

[1] = Pharmacokinetic study, subcutaneous vs IV administration, plasma levosimendan and OR-1896 by HPLC/MS/MS; details: male, Sprague Dawley, rat, in vivo
Method: A pharmacokinetic study was conducted in male Sprague Dawley rats to compare subcutaneous administration of a composition of the present invention with IV administration of a formulation of levosimendan. The study evaluated levosimendan blood levels and pain at the injection site.
This study involved comparing the results of administering two subcutaneous compositions according to embodiments of the present invention to a previous pharmacokinetic study in which male rats were dosed by tail vein levosimendan as an IV bolus injection at 0.5 mg/kg using a 0.25 mg/ml solution. Thus, this study comprised three study arms: • a. IV administration of a composition comprising levosimendan (0.25 mg/ml) and phosphate buffer (10 mmolar), prepared in sterile water for injection and adjusted to a pH of 7.0 to 7.9 using 1 N NaOH or 10 N NaOH; this composition was administered at a dose of 0.5 mg/kg. • b. Subcutaneous administration of a composition comprising levosimendan (1.0 mg/ml), Captisol® (100 mg/ml), and phosphate buffer (10 mmolar), prepared in sterile water for injection and adjusted to a pH of 7.0 to 7.9 using 1 N NaOH or 10 N NaOH; this composition was administered at a dose of 0.5 mg/kg. • c. […]
Plasma samples were analyzed for levosimendan and OR-1896 (the primary metabolite) by HPLC/MS/MS. […]

[2] = test system: phosphodiesterase-3 (PDE3); details: in vitro; cited from earlier work

Q: What does the source list for C[C@@H]1CC(=O)NN=C1c1ccc(NN=C(C#N)C#N)cc1 [levosimendan, Levosimendan]?
A: increase of six-minute walk distance, average (PH-HFpEF patients; n=8): 30 meters; patients with increased overall sense of well-being (five-point Likert Scale) (PH-HFpEF patients; n=8): 7 out of 8; six-minute walk distance after levosimendan, average (PH-HFpEF patients; n=8, baseline 292): 322 meters; improvement on the five-point Likert scale (PH-HFpEF patients; patients who improved): 1-2 points; start of the β phase (loss from blood mainly due to metabolism) [1]: about 2 hours; PDE3/PDE4 inhibition ratio [2]: 10,000
